Measured values from PubChem BioAssay (NCI).
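Results reflect a 48-hour exposure of cells in 96-well plates to compound at five concentrations. GI50 = concentration required for 50% inhibition of growth. TGI: total growth inhibition.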

Legend:
Test in all cases: NCI anticancer screen, dose series, 48 h
[1] = test system: DU-145 prostate
[2] = test system: 786-0 renal
[3] = test system: UO-31 renal
[4] = test system: NCI/ADR-RES ovarian
[5] = test system: PC-3 prostate
[6] = test system: HOP-62 NSCLC
[7] = test system: SK-MEL-2 melanoma
[8] = test system: TK-10 renal
[9] = test system: SF-268 CNS
[10] = test system: NCI-H522 lung
[11] = test system: K-562 leukemia
[12] = test system: M14 melanoma
[13] = test system: OVCAR-4 ovarian
[14] = test system: T-47D breast
[15] = test system: A498 renal
[16] = test system: OVCAR-3 ovarian
[17] = test system: SNB-75 CNS
[18] = test system: SN12C renal
[19] = test system: ACHN renal
[20] = test system: UACC-257 melanoma
[21] = test system: NCI-H226 lung
[22] = test system: HT29 colon
[23] = test system: HCT-15 colon
[24] = test system: SNB-19 CNS
[25] = test system: MOLT-4 leukemia
[26] = test system: OVCAR-8 ovarian
[27] = test system: MDA-MB-435
[28] = test system: NCI-H460 lung
[29] = test system: U251 CNS
[30] = test system: CAKI-1 renal
[31] = test system: RPMI-8226 leukemia
[32] = test system: HS 578T breast
[33] = test system: OVCAR-5 ovarian
[34] = test system: MALME-3M melanoma
[35] = test system: COLO 205 colon
[36] = test system: MDA-MB-231 breast
[37] = test system: LOX IMVI melanoma
[38] = test system: SK-OV-3 ovarian
[39] = test system: SK-MEL-5 melanoma
[40] = test system: SW-620 colon
[41] = test system: A549 NSCLC
[42] = test system: HOP-92 NSCLC
[43] = test system: MCF7 breast
[44] = test system: SF-539 CNS
[45] = test system: UACC-62 melanoma
[46] = test system: CCRF-CEM leukemia
[47] = test system: KM12 colon
[48] = test system: SR leukemia
[49] = test system: BT-549 breast
[50] = test system: HCT-116 colon
[51] = test system: IGROV1 ovarian
[52] = test system: SK-MEL-28 melanoma
[53] = test system: EKVX NSCLC
[54] = test system: SF-295 CNS
[55] = test system: NCI-H23 lung
[56] = test system: HCC-2998 colon
[57] = test system: HL-60(TB) leukemia

Cn1ncc2ncc(-c3ccc4ncc(C#N)c(N5CCc6cc(F)c(Cl)cc65)c4c3)cc21 showed a GI50 [1] of 4.05 µM, a TGI [1] greater than 100 µM and a GI50 [2] of 4.13 µM. It also gave a TGI [2] greater than 100 µM, a GI50 [3] of 0.251 µM and a TGI [3] of 10.5 µM. It also gave a GI50 [4] of 3.27 µM, a TGI [4] greater than 100 µM and a GI50 [5] of 2.27 µM. For the same molecule, the TGI [5] was greater than 100 µM, the GI50 [6] was 2.74 µM and the TGI [6] was greater than 100 µM. The GI50 [7] was 5.65 µM, the TGI [7] was 37.7 µM and the GI50 [8] was 9.02 µM. For the same molecule, the TGI [8] was greater than 100 µM, the GI50 [9] was 4.11 µM and the TGI [9] was greater than 100 µM. For the same molecule, the GI50 [10] was 3.28 µM, the TGI [10] was greater than 100 µM and the GI50 [11] was 4.73 µM. It also gave a TGI [11] greater than 100 µM, a GI50 [12] of 6.02 µM and a TGI [12] greater than 100 µM. For the same molecule, the GI50 [13] was 2.64 µM, the TGI [13] was 31.5 µM and the GI50 [14] was 2.03 µM. It also gave a TGI [14] of 31.1 µM, a GI50 [15] of 2.61 µM and a TGI [15] of 7.7 µM. The GI50 [16] was 2.66 µM, the TGI [16] was 83.6 µM and the GI50 [17] was 0.769 µM. For the same molecule, the TGI [17] was 5.47 µM, the GI50 [18] was 1.93 µM and the TGI [18] was greater than 100 µM. The GI50 [19] was 2.49 µM, the TGI [19] was greater than 100 µM and the GI50 [20] was 9.46 µM. The TGI [20] was greater than 100 µM, the GI50 [21] was 1.86 µM and the TGI [21] was 20.9 µM. For the same molecule, the GI50 [22] was 3.82 µM, the TGI [22] was greater than 100 µM and the GI50 [23] was 3.49 µM. The TGI [23] was greater than 100 µM, the GI50 [24] was 6.72 µM and the TGI [24] was greater than 100 µM. The GI50 [25] was 3.01 µM, the TGI [25] was greater than 100 µM and the GI50 [26] was 4.47 µM. For the same molecule, the TGI [26] was greater than 100 µM, the GI50 [27] was 3.13 µM and the TGI [27] was 11.8 µM. For the same molecule, the GI50 [28] was 4.93 µM, the TGI [28] was greater than 100 µM and the GI50 [29] was 5.46 µM. For the same molecule, the TGI [29] was greater than 100 µM, the GI50 [30] was 2.31 µM and the TGI [30] was 79 µM. The GI50 [31] was 3.28 µM, the TGI [31] was greater than 100 µM and the GI50 [32] was 1.44 µM. The TGI [32] was 5.41 µM, the GI50 [33] was 3.71 µM and the TGI [33] was greater than 100 µM. The GI50 [34] was 2.14 µM, the TGI [34] was 14.9 µM and the GI50 [35] was 5.8 µM. The TGI [35] was greater than 100 µM, the GI50 [36] was 2.6 µM and the TGI [36] was 28.1 µM. It also gave a GI50 [37] of 2.26 µM, a TGI [37] of 38.4 µM and a GI50 [38] of 2.71 µM. For the same molecule, the TGI [38] was greater than 100 µM, the GI50 [39] was 6.97 µM and the TGI [39] was 21.9 µM. It also gave a GI50 [40] of 7.04 µM, a TGI [40] greater than 100 µM and a GI50 [41] of 4.05 µM. The TGI [41] was greater than 100 µM, the GI50 [42] was 2.27 µM and the TGI [42] was 8.75 µM. It also gave a GI50 [43] of 2.44 µM, a TGI [43] greater than 100 µM and a GI50 [44] of 3.78 µM. The TGI [44] was 61.7 µM, the GI50 [45] was 1.65 µM and the TGI [45] was 11.7 µM. It also gave a GI50 [46] of 4.62 µM, a TGI [46] greater than 100 µM and a GI50 [47] of 5.35 µM. For the same molecule, the TGI [47] was greater than 100 µM, the GI50 [48] was 3.67 µM and the TGI [48] was greater than 100 µM. For the same molecule, the GI50 [49] was 3.75 µM, the TGI [49] was 85.6 µM and the GI50 [50] was 9.79 µM. The TGI [50] was greater than 100 µM, the GI50 [51] was 1.22 µM and the TGI [51] was 4.61 µM. The GI50 [52] was 4.92 µM, the TGI [52] was greater than 100 µM and the GI50 [53] was 2.35 µM. For the same molecule, the TGI [53] was 14.6 µM, the GI50 [54] was 2.57 µM and the TGI [54] was greater than 100 µM. It also gave a GI50 [55] of 4.8 µM, a TGI [55] greater than 100 µM and a GI50 [56] of 3.26 µM. The TGI [56] was greater than 100 µM, the GI50 [57] was 7.84 µM and the TGI [57] was greater than 100 µM.
